ChEMBL document CHEMBL1201862, “PubChem BioAssay data set” (2004)
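Following 48 hours of exposure in 96-well plates, responses at five concentrations were used to interpolate endpoints linearly. Abbreviation: GI50, concentration required for 50% inhibition of growth.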 Calls of active or inactive are those of the source. Rule as the data show it: active = GI50 up to about 1.1 µM and inactive = higher.

Experiments:
Experiment in all cases: inhibition of tumour cell growth, NCI panel, 48 h
786-0 = system: 786-0
A498 = system: A498
A549 = system: A549
ACHN = system: ACHN
BT-549 = system: BT-549
CAKI-1 = system: CAKI-1
CCRF-CEM = system: CCRF-CEM
COLO 205 = system: COLO 205
DLD-1 = system: DLD-1
DMS-114 = system: DMS-114
DMS-273 = system: DMS-273
DU-145 = system: DU-145
EKVX = system: EKVX
HCC 2998 = system: HCC 2998
HCT-116 = system: HCT-116
HCT-15 = system: HCT-15
HL-60 = system: HL-60
HOP-18 = system: HOP-18
HOP-62 = system: HOP-62
HOP-92 = system: HOP-92
HT-29 = system: HT-29
Hs-578T = system: Hs-578T
IGROV-1 = system: IGROV-1
K562 = system: K562
KM-20L2 = system: KM-20L2
KM12 = system: KM12
LOX IMVI = system: LOX IMVI
LXFL 529 = system: LXFL 529
M14 = system: M14
M19-MEL = system: M19-MEL
MCF7 = system: MCF7
MDA-MB-231 = system: MDA-MB-231
MDA-MB-435 = system: MDA-MB-435
MDA-N = system: MDA-N
MOLT-4 = system: MOLT-4
Malme-3M = system: Malme-3M
NCI-H226 = system: NCI-H226
NCI-H23 = system: NCI-H23
NCI-H460 = system: NCI-H460
NCI-H522 = system: NCI-H522
NCI/ADR-RES = system: NCI/ADR-RES
OVCAR-3 = system: OVCAR-3
OVCAR-4 = system: OVCAR-4
OVCAR-5 = system: OVCAR-5
OVCAR-8 = system: OVCAR-8
PC-3 = system: PC-3
RPMI-8226 = system: RPMI-8226
RXF 393 = system: RXF 393
SF-268 = system: SF-268
SF-295 = system: SF-295
SF-539 = system: SF-539
SK-MEL-28 = system: SK-MEL-28
SK-MEL-2 = system: SK-MEL-2
SK-MEL-5 = system: SK-MEL-5
SK-OV-3 = system: SK-OV-3
SN12C = system: SN12C
SNB-19 = system: SNB-19
SNB-75 = system: SNB-75
SNB-78 = system: SNB-78
SR = system: SR
SW-620 = system: SW-620
T47D = system: T47D
TK-10 = system: TK-10
U-251 = system: U-251
UACC-257 = system: UACC-257
UACC-62 = system: UACC-62
UO-31 = system: UO-31
XF498 = system: XF498
RXF 631 = system: RXF 631

With `CC[C@@]1(OP(=O)(O)O)C(=O)OCc2c1cc1n(c2=O)Cc2cc3ccccc3nc2-1` the GI50 (786-0) was 0.0607 µM (active), the GI50 (A498) was 0.0817 µM (active) and the GI50 (A549) was 0.143 µM (active). The GI50 (ACHN) was 0.0405 µM (active), the GI50 (BT-549) was 0.201 µM (active) and the GI50 (CAKI-1) was 0.0467 µM (active). The GI50 (CCRF-CEM) was 0.00927 µM (active), the GI50 (COLO 205) was 0.847 µM (active) and the GI50 (DLD-1) was 1.11 µM (active). The GI50 (DMS-114) was 0.0485 µM (active), the GI50 (DMS-273) was 0.0513 µM (active) and the GI50 (DU-145) was 0.0488 µM (active). For the same compound, the GI50 (EKVX) was 1.12 µM (inactive), the GI50 (HCC 2998) was 0.771 µM (active) and the GI50 (HCT-116) was 0.157 µM (active). For the same compound, the GI50 (HCT-15) was 0.748 µM, the GI50 (HL-60) was 0.0306 µM (active) and the GI50 (HOP-18) was 1.08 µM (active). For the same compound, the GI50 (HOP-62) was 0.253 µM (active), the GI50 (HOP-92) was 0.447 µM (active) and the GI50 (HT-29) was 0.319 µM (active). For the same compound, the GI50 (Hs-578T) was > 10 µM (inactive), the GI50 (IGROV-1) was 0.311 µM (active) and the GI50 (K562) was 0.438 µM (active). For the same compound, the GI50 (KM-20L2) was 1 µM (active), the GI50 (KM12) was 0.398 µM (active) and the GI50 (LOX IMVI) was 0.0391 µM (active). The GI50 (LXFL 529) was 1.73 µM (inactive), the GI50 (M14) was 0.0776 µM (active) and the GI50 (M19-MEL) was 1.01 µM (active). For the same compound, the GI50 (MCF7) was 0.0358 µM (active), the GI50 (MDA-MB-231) was 3.37 µM (inactive) and the GI50 (MDA-MB-435) was 0.339 µM (active). The GI50 (MDA-N) was 0.537 µM (active), the GI50 (MOLT-4) was 0.014 µM (active) and the GI50 (Malme-3M) was 1.67 µM (inactive). For the same compound, the GI50 (NCI-H226) was 0.179 µM (active), the GI50 (NCI-H23) was 0.0608 µM (active) and the GI50 (NCI-H460) was 0.0308 µM (active). The GI50 (NCI-H522) was 0.286 µM (active), the GI50 (NCI/ADR-RES) was 0.0718 µM (active) and the GI50 (OVCAR-3) was 2.73 µM (inactive). The GI50 (OVCAR-4) was 1.76 µM (inactive), the GI50 (OVCAR-5) was 0.231 µM (active) and the GI50 (OVCAR-8) was 0.224 µM (active). For the same compound, the GI50 (PC-3) was 0.32 µM (active), the GI50 (RPMI-8226) was 0.0718 µM (active) and the GI50 (RXF 393) was 0.454 µM (active). For the same compound, the GI50 (SF-268) was 0.0486 µM (active), the GI50 (SF-295) was 0.0301 µM (active) and the GI50 (SF-539) was 0.109 µM (active). For the same compound, the GI50 (SK-MEL-28) was 1.22 µM (inactive), the GI50 (SK-MEL-2) was 2.94 µM (inactive) and the GI50 (SK-MEL-5) was 0.153 µM (active). The GI50 (SK-OV-3) was 0.342 µM (active), the GI50 (SN12C) was 0.0883 µM (active) and the GI50 (SNB-19) was 0.0798 µM (active). The GI50 (SNB-75) was 0.16 µM (active), the GI50 (SNB-78) was 4.63 µM (inactive) and the GI50 (SR) was 0.00274 µM (active). The GI50 (SW-620) was 0.403 µM (active), the GI50 (T47D) was 0.132 µM (active) and the GI50 (TK-10) was 2.55 µM (inactive). The GI50 (U-251) was 0.0603 µM (active), the GI50 (UACC-257) was 0.287 µM (active) and the GI50 (UACC-62) was 0.0381 µM (active). For the same compound, the GI50 (UO-31) was 0.0836 µM (active) and the GI50 (XF498) was 0.221 µM (active).
For `COC(=O)[C@H]1C=C[C@@H](C)n2c(=O)c3cc4ccccc4cc3c(=O)n21`, the GI50 (786-0) was > 100 µM (inactive), the GI50 (A498) was > 100 µM (inactive) and the GI50 (A549) was > 100 µM (inactive). The GI50 (ACHN) was > 100 µM (inactive), the GI50 (CAKI-1) was > 100 µM (inactive) and the GI50 (CCRF-CEM) was > 100 µM (inactive). The GI50 (COLO 205) was > 100 µM (inactive), the GI50 (DLD-1) was > 100 µM (inactive) and the GI50 (DMS-114) was > 100 µM (inactive). The GI50 (DMS-273) was > 100 µM (inactive), the GI50 (EKVX) was > 100 µM (inactive) and the GI50 (HCC 2998) was > 100 µM (inactive). For the same compound, the GI50 (HCT-116) was > 100 µM (inactive), the GI50 (HCT-15) was > 100 µM and the GI50 (HL-60) was > 100 µM (inactive). The GI50 (HOP-62) was > 100 µM (inactive), the GI50 (HOP-92) was > 100 µM (inactive) and the GI50 (IGROV-1) was > 100 µM (inactive). For the same compound, the GI50 (K562) was > 100 µM (inactive), the GI50 (KM-20L2) was > 100 µM (inactive) and the GI50 (KM12) was > 100 µM (inactive). For the same compound, the GI50 (LOX IMVI) was > 100 µM (inactive), the GI50 (LXFL 529) was > 100 µM (inactive) and the GI50 (M14) was > 100 µM (inactive). The GI50 (M19-MEL) was > 100 µM (inactive), the GI50 (MOLT-4) was > 100 µM (inactive) and the GI50 (Malme-3M) was > 100 µM (inactive). For the same compound, the GI50 (NCI-H226) was > 100 µM (inactive), the GI50 (NCI-H23) was > 100 µM (inactive) and the GI50 (NCI-H460) was > 100 µM (inactive). For the same compound, the GI50 (NCI-H522) was > 100 µM (inactive), the GI50 (OVCAR-3) was > 100 µM (inactive) and the GI50 (OVCAR-5) was > 100 µM (inactive). The GI50 (OVCAR-8) was > 100 µM (inactive), the GI50 (RPMI-8226) was > 100 µM (inactive) and the GI50 (RXF 393) was > 100 µM (inactive). The GI50 (RXF 631) was > 100 µM (inactive), the GI50 (SF-268) was > 100 µM (inactive) and the GI50 (SF-295) was > 100 µM (inactive). For the same compound, the GI50 (SF-539) was > 100 µM (inactive), the GI50 (SK-MEL-28) was > 100 µM (inactive) and the GI50 (SK-MEL-2) was > 100 µM (inactive). The GI50 (SK-MEL-5) was > 100 µM (inactive), the GI50 (SK-OV-3) was > 100 µM (inactive) and the GI50 (SN12C) was > 100 µM (inactive). The GI50 (SNB-19) was > 100 µM (inactive), the GI50 (SNB-75) was 43.6 µM (inactive) and the GI50 (SNB-78) was > 100 µM (inactive). For the same compound, the GI50 (SR) was > 100 µM (inactive), the GI50 (SW-620) was > 100 µM (inactive) and the GI50 (TK-10) was > 100 µM (inactive). For the same compound, the GI50 (U-251) was > 100 µM (inactive), the GI50 (UACC-257) was > 100 µM (inactive) and the GI50 (UO-31) was > 100 µM (inactive). The GI50 (XF498) was 98.9 µM (inactive).
